From ChEMBL document CHEMBL1201862, “PubChem BioAssay data set” (2004)
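Five compound concentrations were applied to cells in 96-well plates for 48 hours; endpoints were derived by simple linear interpolation of the resulting dose-response curve. Here, GI50 denotes the concentration required for 50% inhibition of growth.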 The source made the active and inactive calls. Cut-off read from the data, not from the text of the source: active = GI50 up to about 1.1 µM and inactive = higher.

What was measured:
Assay in all cases: DTP human tumour cell line panel, 48 h
LOX IMVI = tested on: LOX IMVI
M19-MEL = tested on: M19-MEL
M14 = tested on: M14
CAKI-1 = tested on: CAKI-1
ACHN = tested on: ACHN
TK-10 = tested on: TK-10
SNB-75 = tested on: SNB-75
UACC-62 = tested on: UACC-62
U-251 = tested on: U-251
NCI-H23 = tested on: NCI-H23
SN12C = tested on: SN12C
SW-620 = tested on: SW-620
OVCAR-5 = tested on: OVCAR-5
LXFL 529 = tested on: LXFL 529
UO-31 = tested on: UO-31
DMS-273 = tested on: DMS-273
SF-268 = tested on: SF-268
OVCAR-4 = tested on: OVCAR-4
XF498 = tested on: XF498
K562 = tested on: K562
SK-MEL-2 = tested on: SK-MEL-2
NCI-H522 = tested on: NCI-H522
SF-295 = tested on: SF-295
SK-MEL-5 = tested on: SK-MEL-5
MOLT-4 = tested on: MOLT-4
OVCAR-3 = tested on: OVCAR-3
HL-60 = tested on: HL-60
CCRF-CEM = tested on: CCRF-CEM
786-0 = tested on: 786-0
SF-539 = tested on: SF-539
IGROV-1 = tested on: IGROV-1
HCT-15 = tested on: HCT-15
EKVX = tested on: EKVX
COLO 205 = tested on: COLO 205
OVCAR-8 = tested on: OVCAR-8
DMS-114 = tested on: DMS-114
SNB-78 = tested on: SNB-78
A498 = tested on: A498
SK-MEL-28 = tested on: SK-MEL-28
A549 = tested on: A549
SK-OV-3 = tested on: SK-OV-3
HOP-92 = tested on: HOP-92
NCI-H460 = tested on: NCI-H460
RXF 393 = tested on: RXF 393
HCT-116 = tested on: HCT-116
KM12 = tested on: KM12
HOP-62 = tested on: HOP-62
RPMI-8226 = tested on: RPMI-8226
SNB-19 = tested on: SNB-19
UACC-257 = tested on: UACC-257
Malme-3M = tested on: Malme-3M
DLD-1 = tested on: DLD-1
NCI-H226 = tested on: NCI-H226
KM-20L2 = tested on: KM-20L2
HCC 2998 = tested on: HCC 2998
HOP-18 = tested on: HOP-18
MCF7 = tested on: MCF7

`CC(=O)N/N=C1\CC(C)(C)C2CCC1C2` (stereo not given) was tested, and the GI50 (LOX IMVI) was > 100 µM (inactive), the GI50 (M19-MEL) was > 100 µM (inactive) and the GI50 (M14) was > 100 µM (inactive). For the same compound, the GI50 (CAKI-1) was > 100 µM (inactive), the GI50 (ACHN) was > 100 µM (inactive) and the GI50 (TK-10) was > 100 µM (inactive). The GI50 (SNB-75) was > 100 µM (inactive), the GI50 (UACC-62) was > 100 µM (inactive) and the GI50 (U-251) was > 100 µM (inactive). For the same compound, the GI50 (NCI-H23) was > 100 µM (inactive), the GI50 (SN12C) was > 100 µM (inactive) and the GI50 (SW-620) was > 100 µM (inactive). For the same compound, the GI50 (OVCAR-5) was > 100 µM (inactive), the GI50 (LXFL 529) was > 100 µM (inactive) and the GI50 (UO-31) was > 100 µM (inactive). The GI50 (DMS-273) was > 100 µM (inactive), the GI50 (SF-268) was > 100 µM (inactive) and the GI50 (OVCAR-4) was > 100 µM (inactive). For the same compound, the GI50 (XF498) was > 100 µM (inactive), the GI50 (K562) was > 100 µM (inactive) and the GI50 (SK-MEL-2) was > 100 µM (inactive). The GI50 (NCI-H522) was > 100 µM (inactive), the GI50 (SF-295) was > 100 µM (inactive) and the GI50 (SK-MEL-5) was > 100 µM (inactive). For the same compound, the GI50 (MOLT-4) was > 100 µM (inactive), the GI50 (OVCAR-3) was > 100 µM (inactive) and the GI50 (HL-60) was > 100 µM (inactive). The GI50 (CCRF-CEM) was > 100 µM (inactive), the GI50 (786-0) was > 100 µM (inactive) and the GI50 (SF-539) was > 100 µM (inactive). The GI50 (IGROV-1) was > 100 µM (inactive), the GI50 (HCT-15) was greater than 100 µM and the GI50 (EKVX) was > 100 µM (inactive). For the same compound, the GI50 (COLO 205) was > 100 µM (inactive), the GI50 (OVCAR-8) was > 100 µM (inactive) and the GI50 (DMS-114) was > 100 µM (inactive). The GI50 (SNB-78) was > 100 µM (inactive), the GI50 (A498) was > 100 µM (inactive) and the GI50 (SK-MEL-28) was > 100 µM (inactive). For the same compound, the GI50 (A549) was > 100 µM (inactive), the GI50 (SK-OV-3) was > 100 µM (inactive) and the GI50 (HOP-92) was > 100 µM (inactive). The GI50 (NCI-H460) was > 100 µM (inactive), the GI50 (RXF 393) was > 100 µM (inactive) and the GI50 (HCT-116) was > 100 µM (inactive). The GI50 (KM12) was > 100 µM (inactive), the GI50 (HOP-62) was > 100 µM (inactive) and the GI50 (RPMI-8226) was > 100 µM (inactive). For the same compound, the GI50 (SNB-19) was > 100 µM (inactive), the GI50 (UACC-257) was > 100 µM (inactive) and the GI50 (Malme-3M) was > 100 µM (inactive).

For `COc1cc(C2c3cc4c(cc3[C@@H](NCCN(C)C)C3COC(=O)[C@H]23)OCO4)cc(OC)c1O` (stereo not given in full), the GI50 (M19-MEL) was 0.91 µM (active), the GI50 (M14) was 0.255 µM (active) and the GI50 (TK-10) was 1.69 µM (inactive). For the same compound, the GI50 (DLD-1) was 1.46 µM (inactive), the GI50 (SNB-75) was 0.13 µM (active) and the GI50 (U-251) was 0.0687 µM (active). For the same compound, the GI50 (SW-620) was 0.296 µM (active), the GI50 (LXFL 529) was 1.82 µM (inactive) and the GI50 (UO-31) was 0.284 µM (active). For the same compound, the GI50 (OVCAR-4) was 3.09 µM (inactive), the GI50 (NCI-H226) was 0.0156 µM (active) and the GI50 (XF498) was 0.2 µM (active). The GI50 (K562) was 0.407 µM (active), the GI50 (SK-MEL-5) was 0.133 µM (active) and the GI50 (OVCAR-3) was 1.34 µM (inactive). For the same compound, the GI50 (HL-60) was 0.0127 µM (active), the GI50 (SF-539) was 0.0585 µM (active) and the GI50 (SK-MEL-28) was 0.309 µM (active). For the same compound, the GI50 (A549) was 0.0207 µM (active), the GI50 (HOP-92) was 0.0303 µM (active) and the GI50 (NCI-H460) was < 0.01 µM (active). For the same compound, the GI50 (KM12) was 0.931 µM (active), the GI50 (RPMI-8226) was 0.29 µM (active) and the GI50 (SNB-19) was 0.598 µM (active). For the same compound, the GI50 (Malme-3M) was 0.36 µM (active).

`CC[n+]1c(-c2ccccc2)c2cc(N)ccc2c2ccc(N)cc21` was tested, and the GI50 (M19-MEL) was 1.88 µM (inactive), the GI50 (CAKI-1) was 11.8 µM (inactive) and the GI50 (ACHN) was 22.1 µM (inactive). The GI50 (UACC-62) was 1.52 µM (inactive), the GI50 (NCI-H23) was 1.31 µM (inactive) and the GI50 (SN12C) was 2.51 µM (inactive). The GI50 (SW-620) was 2.3 µM (inactive), the GI50 (OVCAR-5) was 29.6 µM (inactive) and the GI50 (LXFL 529) was 0.668 µM (active). The GI50 (DMS-273) was 0.481 µM (active), the GI50 (OVCAR-4) was 6.68 µM (inactive) and the GI50 (K562) was 2.35 µM (inactive). The GI50 (SF-295) was 3 µM (inactive), the GI50 (MOLT-4) was 1.64 µM (inactive) and the GI50 (OVCAR-3) was 3.06 µM (inactive). The GI50 (HL-60) was 4.3 µM (inactive), the GI50 (KM-20L2) was 3.91 µM (inactive) and the GI50 (SF-539) was 1.48 µM (inactive). For the same compound, the GI50 (IGROV-1) was 1.42 µM (inactive), the GI50 (COLO 205) was 2.12 µM (inactive) and the GI50 (DMS-114) was 1.29 µM (inactive). For the same compound, the GI50 (A549) was 9.57 µM (inactive), the GI50 (NCI-H460) was 3.3 µM (inactive) and the GI50 (HCT-116) was 2.79 µM (inactive). For the same compound, the GI50 (KM12) was 2.95 µM (inactive), the GI50 (HCC 2998) was 2.67 µM (inactive) and the GI50 (UACC-257) was 2.65 µM (inactive). The GI50 (Malme-3M) was 2.24 µM (inactive) and the GI50 (HOP-18) was 3.59 µM (inactive).

For `NC(=O)c1cn(C2OC(CO)C(O)C2O)c2ncnc(N)c12` (stereo not given), the GI50 (SNB-75) was 0.0422 µM (active), the GI50 (DMS-273) was 0.0381 µM (active) and the GI50 (IGROV-1) was 0.0885 µM (active). The GI50 (MCF7) was 0.0902 µM (active) and the GI50 (OVCAR-8) was 0.139 µM (active).
